This is an account of results in US8722910B2, “Diyne compositions” (Evolva AG, priority 2009, dated 2014).

In brackets after ≈: the same amount, converted by molar mass. Like-named read-outs stand apart in the source and are kept apart here.

One experiment relates to B. dermatitidis. Briefly: Susceptibility of clinical dimorphic fungi (MIC). Format: cell-based. The conditions noted are these: Blastomyces dermatitidis; B. dermatitidis (n = 30); CLSI M38-A2; 50% growth reduction; MIC read at 96 h.
Experiment [1] deals with C. albicans. Briefly: Fatty acid competition (antagonism) in 96-well plates. The conditions noted are these: 48 h.
Another experiment deals with A. versicolor. Briefly: Susceptibility of clinical Aspergillus isolates (MIC). Type of experiment: cell-based. The note with it: Aspergillus versicolor; A. versicolor (n = 3); CLSI M38-A2; 50% growth inhibition; 24 h; read-out: MIC50. Here is the method:
(§1) The efficacy of compound IV″ was investigated on 563 clinical isolates of 33 human fungal pathogens. […] For species with n≧10, the MIC90 (MIC, minimal inhibitory concentration) is given as ng/ml. For species with n≦10, the MIC range is given as ng/ml. 24 h and 48 h reads are indicated (Table 1).
(§2) Susceptibilities were determined according to the CLSI reference method M38-A2.

The subject of a further experiment is A. fumigatus. The description is as above. The conditions noted are these: Aspergillus fumigatus; A. fumigatus (n = 20); CLSI M38-A2; 50% growth inhibition; 24 h; read-out: MIC50. Format: cell-based. How it is done: as §1, §2
A further experiment concerns A. niger. The description is as above. Type of experiment: cell-based. The note with it: A. niger (n = 6), CLSI M38-A2, 50% growth inhibition, 24 h, read-out: MIC50. Here is the method:
as §1, §2

For another experiment, the system named is A. flavus. Described as above. The conditions noted are these: Aspergillus flavus; A. flavus (n = 2); CLSI M38-A2; 50% growth inhibition; 24 h; read-out: MIC50. Format: cell-based. Here is the method: as §1, §2
The next experiment relates to A. terreus. Described as above. Format: cell-based. The conditions noted are these: Aspergillus terreus; A. terreus (n = 5); CLSI M38-A2; 50% growth inhibition; 24 h; read-out: MIC50. How it is done: as §1, §2
The subject of another experiment is A. nidulans. Described as above. Format: cell-based. The note with it: A. nidulans (n = 3), CLSI M38-A2, 50% growth inhibition, 24 h, read-out: MIC50. Here is the method:
as §1, §2

For another experiment, the system named is C. glabrata. Description: Susceptibility of clinical isolates (MIC, broth dilution). Format: cell-based. The note with it: Nakaseomyces glabratus; C. glabrata (n = 25); M27-A3, 24 hrs; read at 50% inhibition (potassium salt, Voriconazole), 100% (Amphotericin), MEC (Caspofungin); read-out: MIC90. Here is the method: as §1
(§3) The in vitro efficacy of antifungal compounds is determined in susceptibility assays, which are indicative for the spectrum and potency of a compound. Susceptibilities are reported as minimal inhibitory concentrations (MIC, as ng/ml or μg/ml) required to inhibit growth to a defined degree compared to the drug free control. The MIC90 defines the MIC required to inhibit growth for ≧90% of the strains of a population tested.
(§4) The MIC90 was calculated for the indicated species.
Background: Broth dilution looks for growth in wells or tubes with falling amounts of substance.

For experiment [2], the system named is C. albicans. Described as above. Type of experiment: cell-based. The note with it: Candida albicans; C. albicans (n = 20); M27-A3, 24 hrs; read at 50% inhibition (potassium salt, Voriconazole), 100% (Amphotericin), MEC (Caspofungin); read-out: MIC90. Here is the method: as §1, §3, §4
In the next experiment the test system is C. lusitaniae. The description is as above. Format: cell-based. The note with it: Clavispora lusitaniae; C. lusitaniae (n = 24); M27-A3, 24 hrs; read at 50% inhibition (potassium salt, Voriconazole), 100% (Amphotericin), MEC (Caspofungin); read-out: MIC90. How it is done:
as §1, §3, §4

The next experiment has as its system C. parapsilosis. Described as above. The note with it: Lodderomyces parapsilosis; C. parapsilosis (n = 37); M27-A3, 24 hrs; read at 50% inhibition (potassium salt, Voriconazole), 100% (Amphotericin), MEC (Caspofungin); read-out: MIC90. Type of experiment: cell-based. Here is the method: as §1, §3, §4
For a further experiment, the system named is C. dubliniensis. Described as above. Format: cell-based. The conditions noted are these: Candida dubliniensis; C. dubliniensis (n = 25); M27-A3, 24 hrs; read at 50% inhibition (potassium salt, Voriconazole), 100% (Amphotericin), MEC (Caspofungin); read-out: MIC90. How it is done:
as §1, §3, §4

A further experiment relates to C. krusei. Described as above. Type of experiment: cell-based. The note with it: Pichia kudriavzevii; C. krusei (n = 27); M27-A3, 24 hrs; read at 50% inhibition (potassium salt, Voriconazole), 100% (Amphotericin), MEC (Caspofungin); read-out: MIC90. How it is done:
as §1, §3, §4

The subject of another experiment is C. tropicalis. The experiment is described as above. Format: cell-based. The note with it: Candida tropicalis; C. tropicalis (n = 35); M27-A3, 24 hrs; read at 50% inhibition (potassium salt, Voriconazole), 100% (Amphotericin), MEC (Caspofungin); read-out: MIC90. Here is the method:
as §1, §3, §4

For another experiment, the system named is Coccidioides spp. Briefly: microbe, parasite or virus in culture. The note with it: Coccidioides, 48 h. Type of experiment: cell-based.
The next experiment relates to H. capsulatum. Description: microbe, parasite or virus in culture. Format: cell-based. The note with it: Histoplasma capsulatum, 120 h.
Experiment [3] deals with C. glabrata, Fluconazole, Voriconazole, Itraconazole and/or Caspofungin resistant isolates. Description: Susceptibility of resistant clinical isolates (MIC, broth dilution). Type of experiment: cell-based. The conditions noted are these: Nakaseomyces glabratus; C. glabrata resistant (n = 21): isolates resistant to Fluconazole, Itraconazole, Voriconazole and Caspofungin; read-out: MIC90. How it is done:
as §1, §4

A further experiment concerns Candida albicans. Briefly: In vitro fungicidal activity vs. Candida albicans. The conditions noted are these: Candida albicans.
Experiment [4] has as its system C. albicans, Fluconazole, Voriconazole, Itraconazole and/or Caspofungin resistant isolates. Description: Susceptibility of resistant clinical isolates (MIC, broth dilution). Format: cell-based. The conditions noted are these: Candida albicans; C. albicans resistant (n = 20): isolates resistant to Fluconazole, Itraconazole and Caspofungin; read-out: MIC90.

Consider `C[C@@H]1[C@H](O)[C@@H](C)/C=C/C=C/C=C/C=C/C=C/C=C/C=C/[C@H](O[C@@H]2O[C@H](C)[C@@H](O)[C@H](N)[C@@H]2O)C[C@@H]2O[C@](O)(C[C@@H](O)C[C@@H](O)[C@H](O)CC[C@@H](O)C[C@@H](O)CC(=O)O[C@H]1C)C[C@H](O)[C@H]2C(=O)O` [Amphotericin B], for which the MIC90 in the experiment on B. dermatitidis was found to be 0.25 µg/mL (≈ 0.271 µM); with C. glabrata, 2 µg/mL; in the experiment on C. albicans [2] it was 0.5 µg/mL; in the experiment with C. lusitaniae, 1 µg/mL; in the experiment on C. parapsilosis it was 0.5 µg/mL; in the experiment on C. dubliniensis, 1 µg/mL. The MIC90 turned out to be 4 µg/mL in the experiment with C. krusei; 1 µg/mL in the experiment on C. tropicalis; 0.5 µg/mL (≈ 0.541 µM) with Coccidioides spp.; 0.125 µg/mL (≈ 0.135 µM) against H. capsulatum; 2 µg/mL (≈ 2.16 µM) in experiment [3]; 0.2 µg/mL (≈ 0.216 µM) with Candida albicans (24 h, read-out: MIC90 24 h). The MIC90 in the experiment on Candida albicans (48 h, read-out: MIC90 48 h) was 0.8 µg/mL (≈ 0.866 µM); in [4], 0.5 µg/mL (≈ 0.541 µM). Further, the “effect of oleic acid / stearic acid on susceptibility” value in the experiment with C. albicans [1] was “oleic acid did not decrease the susceptibility”. Besides, the MIC50 in the experiment on A. versicolor is 2 µg/mL (≈ 2.16 µM); in the experiment with A. fumigatus, 0.5 µg/mL (≈ 0.541 µM); with A. niger it was 1 µg/mL (≈ 1.08 µM); in the experiment on A. flavus it was 2 µg/mL (≈ 2.16 µM); in the experiment with A. terreus, 2 µg/mL (≈ 2.16 µM); with A. nidulans, 2 µg/mL (≈ 2.16 µM). For the same compound, the “Fungicidal Concentration” value with Candida albicans is 800 ng/mL.

As a reminder, the MIC50 is the lowest concentration that inhibits either 50% of growth or 50% of the strains tested, depending on the study.
